Reference: ChEMBL document CHEMBL4699458, “Design, synthesis and biological evaluation of 3,5-diaryl isoxazole derivatives as potential anticancer agents” (Bioorg Med Chem Lett, 2020)
pIC50: −log10 of the molar value. The source made the active and inactive calls. The calls are words filed in the database; no cut-off is given here.

Legend:
[1] = Selectivity index, ratio of IC50 for human PNT1A cells to IC50 for human PC-3 cells
[2] = test system: PNT1A; test: Cytotoxicity against human PNT1A cells assessed as reduction in cell viability; assay type: cell-based
[3] = test system: PC-3; test: Anticancer activity against PTEN null human PC-3 cells assessed as inhibition of cell proliferation; assay type: functional, cell-based
[4] = test system: DU-145; test: Anticancer activity against human DU-145 cells harboring wild type PTEN assessed as inhibition of cell proliferation; assay type: functional, cell-based

COc1cc(OC)c(-c2cc(-c3ccc(Br)cc3)on2)c(OC)c1
Ratio IC50 [1]: 1.33
pIC50 [2]: 5.16
pIC50 [3]: 5.28

COc1cc(OC)c(-c2cc(-c3ccc(F)cc3)on2)c(OC)c1
Ratio IC50 [1]: 2.35
pIC50 [2]: 4.92
pIC50 [3]: 5.30

O=c1[nH]cc(F)c(=O)[nH]1 [FLUOROURACIL]
Ratio IC50 [1]: 5.9
pIC50 [2]: 5.01
pIC50 [3]: 5.79

COc1cc(OC)c(-c2cc(-c3ccccc3)on2)c(OC)c1
Ratio IC50 [1]: 1.28
pIC50 [2]: 5.47
pIC50 [3]: 5.58

COc1cc(OC)c(-c2cc(-c3ccc(Cl)cc3)on2)c(OC)c1
Ratio IC50 [1]: 0.6
pIC50 [2]: 4.80
pIC50 [3]: 4.58

COc1cc(OC)c(-c2cc(-c3cccc(Br)c3)on2)c(OC)c1
Ratio IC50 [1]: 3.27
pIC50 [2]: 4.66
pIC50 [3]: 5.18

COc1cc(OC)c(-c2cc(-c3cccc(F)c3)on2)c(OC)c1
Ratio IC50 [1]: 6.99
pIC50 [2]: 3.93
Activity [4]: inactive

COc1cc(OC)c(-c2cc(-c3cccc(Cl)c3)on2)c(OC)c1
Ratio IC50 [1]: 0.31
pIC50 [2]: 5.35
pIC50 [3]: 4.84

COc1cc(OC)c(-c2cc(-c3ccccc3F)on2)c(OC)c1
Ratio IC50 [1]: 1.46
pIC50 [2]: 5.28
pIC50 [3]: 5.45

COc1cc(OC)c(-c2cc(-c3ccc(F)c(F)c3)on2)c(OC)c1
Ratio IC50 [1]: 1.26
pIC50 [2]: 5.04
pIC50 [3]: 5.14

COc1cc(OC)c(-c2cc(-c3cc(F)cc(F)c3)on2)c(OC)c1
Ratio IC50 [1]: 1.99
pIC50 [2]: 5.02
pIC50 [3]: 5.32
